{"source": "patent US20240269084A1", "about": "“DELAYED RELEASE COMPOSITIONS OF DIMETHYL FUMARATE” (Zim Laboratories Limited, priority 2021, published 2024)", "origin": "cited, not measured here", "note": "Where a name gives a salt, the structure may show the parent alone.", "data": [{"smiles": "COC(=O)/C=C/C(=O)OC", "note": "[Dimethyl fumarate, dimethyl (E) butenedioate]", "values": [{"measurement": "Solubility in water", "value": "highly soluble in water"}]}]}
